Among the data in US20170291890A1 (Epizyme, Inc., priority 2014, published 2017) are IC50 values, retold here.

In one assay the target is T1, KDM5A (Homo sapiens, UniProt P29375).
T1 construct: C-terminal FLAG-tagged KDM5A^1-1090 was purchased from BPS Biosciences; FLAG (C); purchased BPS Biosciences
T1 sequence (P29375 1-1090): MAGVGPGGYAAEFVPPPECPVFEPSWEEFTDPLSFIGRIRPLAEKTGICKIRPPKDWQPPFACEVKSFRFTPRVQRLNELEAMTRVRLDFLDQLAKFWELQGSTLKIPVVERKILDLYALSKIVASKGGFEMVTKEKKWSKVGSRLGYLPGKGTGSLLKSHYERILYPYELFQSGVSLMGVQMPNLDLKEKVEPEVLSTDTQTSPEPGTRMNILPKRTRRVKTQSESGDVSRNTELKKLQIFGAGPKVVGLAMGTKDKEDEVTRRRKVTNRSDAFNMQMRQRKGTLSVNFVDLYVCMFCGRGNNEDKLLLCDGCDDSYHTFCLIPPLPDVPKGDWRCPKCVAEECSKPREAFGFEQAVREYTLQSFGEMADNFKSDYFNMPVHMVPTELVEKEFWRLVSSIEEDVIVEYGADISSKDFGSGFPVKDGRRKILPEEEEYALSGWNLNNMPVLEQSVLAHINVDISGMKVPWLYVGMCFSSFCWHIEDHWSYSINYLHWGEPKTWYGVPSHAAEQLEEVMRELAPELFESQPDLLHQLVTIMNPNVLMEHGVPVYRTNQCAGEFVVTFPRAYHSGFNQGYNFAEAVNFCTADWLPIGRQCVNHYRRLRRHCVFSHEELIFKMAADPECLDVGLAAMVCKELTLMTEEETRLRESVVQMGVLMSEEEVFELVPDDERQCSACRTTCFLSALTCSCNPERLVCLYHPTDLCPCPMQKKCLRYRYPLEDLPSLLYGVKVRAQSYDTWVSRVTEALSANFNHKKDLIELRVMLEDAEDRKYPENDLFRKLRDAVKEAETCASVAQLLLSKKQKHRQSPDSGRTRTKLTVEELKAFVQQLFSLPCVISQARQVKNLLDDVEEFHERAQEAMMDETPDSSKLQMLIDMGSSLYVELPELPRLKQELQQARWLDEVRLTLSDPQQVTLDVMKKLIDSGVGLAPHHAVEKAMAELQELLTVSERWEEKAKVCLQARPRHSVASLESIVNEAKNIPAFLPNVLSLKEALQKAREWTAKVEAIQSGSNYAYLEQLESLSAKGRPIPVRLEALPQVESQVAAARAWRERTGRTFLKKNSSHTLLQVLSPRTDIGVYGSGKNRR
The experiment in a line: KDM5A Assay (SAMDI mass spectrometry demethylase assay). It counts as biochemical. Conditions: C-terminal FLAG-tagged KDM5A 1-1090; class symbols; read-out: 5A IC50. An outline of the steps: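 FLAG-tagged KDM5A 1-1090 (20 nM) preincubated 30 min with compound in pH 8.0 HEPES buffer with ascorbate, Fe(II), TCEP, then reacted 150 min at 25 °C with H3K4me3 peptide (250 nM) and 2-oxoglutarate (15 μM). Formic acid-quenched; SAMDI-MS substrate/product AUC conversion; IC50 from dose-response.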
In general, IC50 refers to the concentration needed to halve the response being measured. On to `Cn1nc(Nc2cnccc2C(=O)O)cc1-c1ccccc1` [Compound 5], for which the IC50 is 100 to 1000 nM.
On the same count and under the same terms, as for `Cc1nn([C@H]2CC[C@@H](N)CC2)cc1Nc1cnccc1C(=O)O` [Compound 80, 3-((1-((cis)-4-aminocyclohexyl)-3-methyl-1H-pyrazol-4-yl)amino)isonicotinic acid], the figure is 1 to 100 nM; as for `CCc1c(Nc2cnccc2C(=O)O)cnn1-c1ccccc1` [Compound 81, 3-((5-ethyl-1-phenyl-1H-pyrazol-4-yl)amino)isonicotinic acid], 1000 to 10000 nM; as for `Cc1ccc(-n2cc(Nc3cnccc3C(=O)O)c(C)n2)cc1` [Compound 82], 1 to 100 nM.
On the same count and under the same terms, as for `NC1CCC(n2nc(-c3cccc(Cl)c3)cc2Nc2cnccc2C(=O)O)CC1` (centres unmarked) [Compound 85, 3-((1-(4-aminocyclohexyl)-3-(3-chlorophenyl)-1H-pyrazol-5-yl)amino)isonicotinic acid], the figure is 1000 to 10000 nM.
On the same count and under the same terms, the figure for `O=C(O)c1ccncc1Nc1cc(-c2cccc(Cl)c2)n(C2CCC3(CC2)OCCO3)n1` [Compound 86, 3-((5-(3-chlorophenyl)-1-(1,4-dioxaspiro[4.5]decan-8-yl)-1H-pyrazol-3-yl)amino)isonicotinic acid] is 1000 to 10000 nM; for `NC1CCC(n2nc(Nc3cnccc3C(=O)O)cc2-c2cccc(Cl)c2)CC1` (centres unmarked) [Compound 87, 3-((1-(4-aminocyclohexyl)-5-(3-chlorophenyl)-1H-pyrazol-3-yl)amino)isonicotinic acid] it is 1000 to 10000 nM; for `O=C(O)c1ccncc1Nc1nn(-c2ccccc2)cc1-c1ccncc1` [Compound 88, 3-((1-phenyl-4-(pyridin-4-yl)-1H-pyrazol-3-yl)amino) isonicotinic acid] it is 100 to 1000 nM.
Turning to `Cc1nn(C2CCN(CC3CC3)CC2)cc1Nc1cnccc1C(=O)O` [Compound 89, 3-(1-(1-(cyclopropylmethyl)piperidin-4-yl)-3-methyl-1H-pyrazol-4-ylamino)isonicotinic acid], the IC50 lay in the range of 100 to 1000 nM.
The same measure, in the same setting: the figure for `Cc1c(Nc2cnccc2C(=O)O)cnn1C1CCN(CC2CC2)CC1` [Compound 90, 3-(1-(1-(cyclopropylmethyl)piperidin-4-yl)-5-methyl-1H-pyrazol-4-ylamino) isonicotinic acid] is 1000 to 10000 nM.
The same measure, in the same setting: the figure for `Cc1nn(C2CCN(C3CN(C)C3)CC2)cc1Nc1cnccc1C(=O)O` [Compound 91, 3-(3-methyl-1-(1-(1-methylazetidin-3-yl)piperidin-4-yl)-1H-pyrazol-4-ylamino)isonicotinic acid] is 100 to 1000 nM.
On the same count and under the same terms, the figure for `Cc1c(Nc2cnccc2C(=O)O)cnn1C1CCN(C2CN(C)C2)CC1` [Compound 92, 3-(5-methyl-1-(1-(1-methylazetidin-3-yl)piperidin-4-yl)-1H-pyrazol-4-ylamino)isonicotinic acid] is 1000 to 10000 nM; for `COC(=O)c1ccncc1Nc1cn(C2CCN(C3CCC3)CC2)nc1C` [Compound 93, methyl 3-((1-(1-cyclobutylpiperidin-4-yl)-3-methyl-1H-pyrazol-4-yl)amino)isonicotinate] it is 10000 to 100000 nM.
Regarding `Cc1nn(C2CCN(C3CCC3)CC2)cc1Nc1cnccc1C(=O)O` [Compound 94, 3-(1-(1-cyclobutylpiperidin-4-yl)-3-methyl-1H-pyrazol-4-ylamino)isonicotinic acid], the half-maximal inhibitory concentration (IC50) is 100 to 1000 nM.
Turning to `COC(=O)c1ccncc1Nc1cnn(C2CCN(C3CCC3)CC2)c1C` [Compound 95, methyl 3-((1-(1-cyclobutylpiperidin-4-yl)-5-methyl-1H-pyrazol-4-yl)amino)isonicotinate], the IC50 fell in the range of 10000 to 100000 nM.
Same read-out and setting: the figure for `CN1CCC(n2ncc(Nc3cnccc3C(=O)O)c2-c2ccccc2)CC1` [Compound 126, 3-(1-(1-methylpiperidin-4-yl)-5-phenyl-1H-pyrazol-4-ylamino) isonicotinic acid] is 1000 to 10000 nM.

The same assay, now with this note: C-terminal FLAG-tagged KDM5A 1-1090; numeric bound; read-out: 5A IC50.
As to `Cn1ncc(-c2cccnc2)c1Nc1cnccc1C(=O)O` [Compound 4], the IC50 was above 100000 nM.
